The record followed here is US8772299B2, “Phenyl piperazine compounds, pharmaceutical composition including the same and use thereof” (SK Biopharmaceuticals Co., Ltd., priority 2008, dated 2014).

The target in assay [1] is T1, Serotonin 1A (5-HT1A) receptor (Rattus norvegicus, UniProt P19327).
T1 construct: The cortex tissue were homogenized in 30 volumes of ice-cold 50 mM Tris-HCl buffer; from tissue; host or cells: Sprague-Dawley rat brain cortex membranes
T1 sequence (P19327 1-422): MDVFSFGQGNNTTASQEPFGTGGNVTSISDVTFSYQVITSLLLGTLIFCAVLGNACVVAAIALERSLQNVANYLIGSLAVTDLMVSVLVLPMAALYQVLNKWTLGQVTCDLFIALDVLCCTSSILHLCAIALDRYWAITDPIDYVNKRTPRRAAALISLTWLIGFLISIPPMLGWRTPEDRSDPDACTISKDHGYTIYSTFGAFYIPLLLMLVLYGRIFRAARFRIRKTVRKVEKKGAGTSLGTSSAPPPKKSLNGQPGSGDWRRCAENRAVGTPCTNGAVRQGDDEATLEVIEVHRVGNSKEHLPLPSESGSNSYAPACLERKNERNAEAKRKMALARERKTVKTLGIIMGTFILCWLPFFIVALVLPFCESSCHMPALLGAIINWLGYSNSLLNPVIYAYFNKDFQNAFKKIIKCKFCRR
Description: Serotonin 1A (5-HT1A) receptor inhibition assay, [3H]8-OH-DPAT binding to rat cortex membranes. Also on record: species or system Sprague-Dawley (SD) rats. As to conditions: 10 nM test compound; 0.92 nM [3H]8-OH-DPAT; rat cortex homogenate; 60 min at 25° C. How it is done: The method to test the ability of compounds to inhibit serotonin 1A(5-HT1A) receptors was using Hall. et al., J Neuro Chem., 1985, 44, p 1685-1696 with modification.
The Sprague-Dawley (SD) rats were killed by decapitation and their brains rapidly removed at 4° C. The cortex tissue were homogenized in 30 volumes of ice-cold 50 mM Tris-HCl buffer (pH7.4) using an ultra-turrax T8 and centrifuged at 48,000 g for 20 min. The supernatant was discarded and the pellet washed twice by resuspension in 20 volumes Tris-HCl and centrifugation, homogenized in 20 volumes Tris-HCl, and incubated at 37° C. for 10 min. Membranes were than collected by centrifugation and washed twice before final resuspension in 10 volumes of 50 mM Tris-HCl, pH7.4.
For binding assays, the incubation medium consisted of 162.5 ug of tissue homogenate, 0.92 nM of [3H]8-OH-DPAT and vehicle or 10 uM of 5-HT or 10 nM of test compounds per well. 5-HT and test compounds were dissolved in distilled water and incubation medium was 50 mM Tris(pH7.4 at room temperature). The assay plates (96 well) were incubated for 60 min at 25° C. The reaction was terminated by rapid filtration using a Tomtec harvester, through GF/C glassfibre filter with 5 times washes of Tris buffer. The radioactivity retained on the filters was counted by scintillation spectroscopy (MicroBeta TriLux, Wallac). The tests were triplicates. Percent inhibition was calculated as below equation.
Total binding is the value of vehicle treated group and specific binding is the values that deduct non-specific binding (i.e. the value of non-specific ligand, 5-HT).

Assay [2] deals with mice. Description: Anti-Marble Burying Behavior Test in Mice. In kind it is in vivo. Particulars: Mus musculus, reduction in number of marbles buried, ip. The source says:
Marble burying was developed and validated as a pre-clinical assay of potential anxiolytic activity (Andrews and Broekkamp (1993). Procedures to Identify Anxiolytic or Anxiogenic agents. In Behavioural Neuroscience, ed. A Sahgal, pp. 37-54. IRL Press, Oxford). The marble burying test places a naive mouse into a novel environment containing 25 marbles (arranged on top of a sawdust surface). A reduction in the number of marbles buried by the mouse was hypothesized to be an anxiolytic-like effect.

For assay [3], the system named is mice. Description: Tail Suspension Test in Mice (TST). In kind it is in vivo. Particulars: Mus musculus, reduction in immobility vs control group, 1 mg/kg, po. The source says: Tail Suspension Test in mice is the well-known animal model to determine antidepressant efficacy of compounds by checking escaping behavior and immobility time of mice. Mice treated with antidepressant drug show escaping behavior continuously comparing with control group.
The mice were mainly treated orally with the test compound dissolved in 30% PEG400 or with only 30% PEG400 as control. Tail of mouse is suspended to the rod of TST equipment and end of tail is fixed with sticky tape. Suspended mouse is incubated during 2 min for training and adaptation and after following 2 min, observe escaping behavior and check immobility time for 4 min. The potent ability of the compounds was determined as percent value of reduction in immobility comparing to control group as 100% baseline.

Consider `COc1ccccc1N1CCN(CCCCOc2ccc(CCn3cncn3)cc2)CC1` [Example 48, 1-(2-methoxy-phenyl)-4-{4-[4-(2-[1,2,4]triazol-1-yl-ethyl)-phenoxy]-butyl}-piperazine], for which, in assay [1], the inhibition (as a rule, the relative decrease from the control value, in per cent) at 0.01 µM is 48%. The inhibition in vivo (usually the change of the read-out against control, counted positive when it falls) at 3 mg/kg in assay [2] amounted to 31.3%. The compound further displayed an inhibition in vivo at 1 mg/kg in assay [3] of 26.2%.

For `COc1ccccc1N1CCN(CCCCOc2ccc(CCn3ncnn3)cc2)CC1` [Example 51, 1-(2-methoxy-phenyl)-4-{4-[4-(2-tetrazol-2-yl-ethyl)-phenoxy]-butyl}-piperazine], in assay [1], testing at 0.01 µM gave an inhibition of 47%. For the same compound, in assay [2], 7.5 mg/kg produced 44.4% inhibition in vivo. This compound also had an inhibition in vivo at 1 mg/kg in assay [3] of 14.7%.

For the compound `COc1ccccc1N1CCN(CCCCOc2ccc(Cn3nccn3)cc2)CC1` [Example 11, 1-(2-methoxy-phenyl)-4-[4-(4-[1,2,3]triazol-2-ylmethyl-phenoxy)-butyl]-piperazine], testing at 0.01 µM in assay [1] gave an inhibition of 61.8%. The compound further registered an inhibition in vivo at 7.5 mg/kg in assay [2] of 69%. In assay [3], this compound gave an inhibition in vivo at 1 mg/kg of 25%.

In the case of `COc1ccccc1N1CCN(CCCCOc2ccc(Cn3ccnn3)cc2)CC1` [Example 12, 1-(2-methoxy-phenyl)-4-[4-(4-[1,2,3]triazol-1-ylmethyl-phenoxy)-butyl]-piperazine], in assay [1], 0.01 µM produced 60.9% inhibition. Besides, at 3 mg/kg the inhibition in vivo in assay [2] was 97.3%. Besides, the inhibition in vivo at 1 mg/kg in assay [3] is 12.7%.
